Where a SMILES comes first, the peptide text is derived from it.
Molecular target: T1, human TNFα (Homo sapiens, UniProt P01375)
T1 construct: purchased Biosource, Camarillo, Calif
Assay: p55 Receptor/IgG Fusion Protein Binding Assay (inhibition of TNFα capture by p55-Ig coated plate)
Conditions: peptide 1 mM; TNFα 25 ng/ml; read-out: inhibition of binding of TNFα to p55TNFr-IgG chimeric construct
Method: This assay was designed to identify peptides which bind to human TNFα and thereby prevent the capture of the TNFα by a microtiter plate coated with p55-Ig fusion protein. A constant concentration of human TNFα is preincubated with the test peptide and then incubated on the p55-Ig coated microtiter wells. Bound TNFα is detected using a specific antisera and an alkaline phosphatase-conjugated probe.
A 96-well, U-bottom polyvinylchloride microtiter plate was coated with 50 μl/well of p55-Ig fusion protein at 5 μg/ml in 0.01M sodium phosphate, 0.15M sodium chloride (PBS) by incubation overnight at 4° C. or 2 hours at 37° C. The fusion protein, which consists of a p55 TNF receptor protein portion and an IgG portion, can be produced as disclosed in U.S. application Ser. No. 08/010,406 filed Jan. 29, 1993 which is incorporated herein by reference. The plate was washed three times with 0.05% Tween-20 in PBS, then blocked, by adding 150 μl/well of assay buffer (10 mM N-2-hydroxyethylpiperazine-N'-[…] (HEPES) pH 7.2, containing 0.1% porcine gelatin, 0.1% Tween-80, and 0.01% sodium azide) and continuing incubation for 1 hour at 37° C. or at 4° C. for 1-7 days.
Lyophilized peptides to be tested were weighed in tared 12×75 mm polystyrene tubes and reconstituted to a concentration of 1.2 mM with assay buffer. Each suspension was sonicated in a water bath for 1-5 minutes and vortexed 15-30 seconds to disperse large particles. Serial dilutions of each peptide suspension were prepared using assay buffer in a 96-well polystyrene microtiter plate. Additional wells received Fab fragment of the mouse/human monoclonal anti-human TNFα antibody cA2 (positive control) or assay buffer (negative control). […] The polystyrene dilution plate was then sealed and incubated 1 hour at room temperature on an orbital mixer set at moderate speed.
Following the sample preincubation, blocker was discarded from the p55-Ig coated plate and blotted dry. Aliquots (50 μl) of each peptide or control were transferred into duplicate wells on the p55-Ig coated plate which was then sealed and incubated i hour at 37° C. Duplicate wells containing only assay buffer were included as a plate blank. After incubation the p55-Ig plate was washed three times with 0.05% Tween-20 in PBS.
To detect TNFα captured by the p55-Ig plate, all wells were incubated in succession with polyclonal rabbit anti-human TNFα (Genzyme, Boston, Mass.; 1:500 in assay buffer, 50 μl/well), biotinylated goat anti-rabbit Ig (H&L) (Vector Laboratories, Burlingame, Calif.; 1 μg/ml in assay buffer, 50 μl/well) and streptavidin-alkaline phosphatase conjugate (Pierce, Rockford, Ill.; 1 μg/ml in assay buffer, 50 μl/well). All incubations were for 1 hour at 37° C. and after each incubation the plate was washed three times with 0.05% Tween-20 in PBS. Fifty microliters of alkaline phosphatase substrate solution (alkaline buffer (Sigma, St. Louis, Mo.) diluted 1:500 in deionized water plus one 5 mg tablet of p-nitrophenyl phosphate (Sigma, St. Louis, Mo.) per 5 ml of diluted buffer) was added to all wells and incubation continued for 20 minutes at room temperature. Color development was stopped by adding to all wells 50 μl of 3N sodium hydroxide. The optical density (OD) at 405 nm was measured on a microtiter plate reader (Molecular Devices Vmax plate reader), with the plate blank wells subtracted as background. The activity of each peptide was then expressed as the percent inhibition of TNFα capture by the p55-Ig plate, relative to the amount of TNFα captured in wells containing only assay buffer (negative control), as follows: % inhibition=100-((mean OD peptide/mean OD negative control)×100).
The inhibition of binding of TNFα to p55TNFr-IgG chimeric construct was performed as described above using several embodiments of the invention. The peptides were tested at a concentration of 1 mM.

T1 sequence (P01375 77-233 limits assumed): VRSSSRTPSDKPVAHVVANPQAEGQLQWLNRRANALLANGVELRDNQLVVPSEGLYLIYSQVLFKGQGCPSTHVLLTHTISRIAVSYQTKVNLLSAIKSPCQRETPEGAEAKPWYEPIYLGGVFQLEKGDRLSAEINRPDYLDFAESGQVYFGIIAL

Row | Compound | inhibition at 1000 µM [%]
1 | CC(=O)N[C@@H](CC(C)C)C(=O)N[C@@H](Cc1ccccc1)C(=O)N[C@@H](CCC(N)=O)C(=O)N[C@@H](C)C(=O)N[C@@H](Cc1ccccc1)C(=O)N[C@@H](CC(N)=O)C(=O)N[C@@H](C)C(=O)N[C@@H](CO)C(=O)N[C@@H](CC(C)C)C(=O)N[C@@H](C)C(=O)N[C@@H](CC(C)C)C(=O)N[C@@H](CC(N)=O)C(=O)NCC(=O)N[C@H](C(=O)N[C@H](C(N)=O)C(C)C)[C@@H](C)O [SEQ ID NO:12, Acetyl-leucyl-phenylalanyl-glutaminyl-alanyl-phenylalanyl-asparaginyl-alanyl-seryl-leucyl-alanyl-leucyl-asparaginyl-glycyl-threonyl-valine Amide] (Ac-LFQAFNASLALNGTV-NH2) | 40
2 | CC(=O)N[C@@H](C)C(=O)N[C@@H](Cc1ccccc1)C(=O)N[C@@H](CC(N)=O)C(=O)N[C@@H](C)C(=O)N[C@@H](CO)C(=O)N[C@@H](CC(C)C)C(=O)N[C@@H](C)C(=O)N[C@@H](CC(C)C)C(=O)N[C@@H](CC(N)=O)C(=O)NCC(=O)N[C@H](C(=O)N[C@H](C(=O)N[C@@H](Cc1c[nH]cn1)C(=O)N[C@@H](CC(C)C)C(=O)N[C@@H](CO)C(N)=O)C(C)C)[C@@H](C)O [SEQ ID NO:13, Acetyl-alanyl-phenylalanyl-asparaginyl-alanyl-seryl-leucyl-alanyl-leucyl-asparaginyl-glycyl-threonyl-valyl-histidyl-leucyl-serine Amide] (Ac-AFNASLALNGTVHLS-NH2) | 34
3 | CC(C)C[C@H](NC(=O)[C@H](C)NC(=O)[C@H](CC(C)C)NC(=O)[C@H](CO)NC(=O)[C@H](C)NC(=O)[C@H](CC(N)=O)NC(=O)[C@H](Cc1ccccc1)NC(=O)[C@H](C)N)C(=O)N[C@@H](CC(N)=O)C(=O)NCC(=O)N[C@H](C(=O)N[C@H](C(=O)N[C@@H](Cc1c[nH]cn1)C(=O)N[C@@H](CC(C)C)C(=O)N[C@@H](CO)C(N)=O)C(C)C)[C@@H](C)O [SEQ ID NO:14] (H-AFNASLALNGTVHLS-NH2) | 29
4 | CC(C)C[C@H](NC(=O)[C@H](Cc1ccccc1)NC(=O)[C@H](Cc1ccccc1)NC(=O)CNC(=O)[C@H](C)NC(=O)[C@H](Cc1c[nH]cn1)NC(=O)[C@H](C)NC(=O)[C@@H](NC(=O)[C@H](C)NC(=O)[C@@H](NC(=O)[C@@H](NC(=O)[C@H](CC(N)=O)NC(=O)[C@H](CCC(N)=O)NC(=O)[C@H](CCCCN)NC(=O)[C@H](CCC(=O)O)NC(=O)[C@@H](N)CCC(N)=O)[C@@H](C)O)C(C)C)[C@@H](C)O)C(=O)N[C@@H](CCCNC(=N)N)C(=O)N[C@@H](CCC(=O)O)C(=O)N[C@@H](CC(N)=O)C(=O)N[C@@H](CCC(=O)O)C(N)=O [SEQ ID NO:15, Glutaminyl-glutamyl-lysyl-glutaminyl-asparaginyl-threonyl-valyl-alanyl-threonyl-alanyl-histidyl-alanyl-glycyl-phenylalanyl-phenylalanyl-leucyl-arginyl-glutamyl-asparaginyl-glutamic Acid Amide] (H-QEKQNTVATAHAGFFLRENE-NH2) | 48
5 | CC(C)C[C@H](NC(=O)[C@H](Cc1ccccc1)NC(=O)[C@H](Cc1ccccc1)NC(=O)CNC(=O)[C@H](C)NC(=O)[C@H](Cc1c[nH]cn1)NC(=O)[C@H](C)NC(=O)[C@@H](NC(=O)[C@H](C)NC(=O)[C@@H](NC(=O)[C@@H](NC(=O)[C@H](CC(N)=O)NC(=O)[C@H](CCC(N)=O)NC(=O)[C@@H](N)CCCCN)[C@@H](C)O)C(C)C)[C@@H](C)O)C(=O)N[C@@H](CCCNC(=N)N)C(N)=O [SEQ ID NO:16, Lysyl-glutaminyl-asparaginyl-threonyl-valyl-alanyl-threonyl-alanyl-histidyl-alanyl-glycyl-phenylalanyl-phenylalanyl-leucyl-arginine Amide] (H-KQNTVATAHAGFFLR-NH2) | 48
6 | CC(C)C[C@H](NC(=O)[C@H](Cc1ccccc1)NC(=O)[C@H](Cc1ccccc1)NC(=O)CNC(=O)[C@H](C)NC(=O)[C@H](Cc1c[nH]cn1)NC(=O)[C@H](C)NC(=O)[C@@H](NC(=O)[C@H](C)NC(=O)[C@@H](NC(=O)[C@@H](N)[C@@H](C)O)C(C)C)[C@@H](C)O)C(=O)N[C@@H](CCCNC(=N)N)C(=O)N[C@@H](CCC(=O)O)C(=O)N[C@@H](CC(N)=O)C(=O)N[C@@H](CCC(=O)O)C(N)=O [SEQ ID NO:17] (H-TVATAHAGFFLRENE-NH2) | 59

The remaining lines, values ahead:

Row | inhibition at 1000 µM [%] | Compound
7 | 68 | CC(C)C[C@H](NC(=O)[C@H](Cc1ccccc1)NC(=O)[C@H](Cc1ccccc1)NC(=O)CNC(=O)[C@H](C)NC(=O)[C@H](Cc1c[nH]cn1)NC(=O)[C@H](C)NC(=O)[C@@H](N)[C@@H](C)O)C(=O)N[C@@H](CCCNC(=N)N)C(=O)N[C@@H](CCC(=O)O)C(=O)N[C@@H](CC(N)=O)C(=O)N[C@@H](CCC(=O)O)C(=O)N[C@@H](C)C(=O)N[C@H](C(=O)N[C@@H](CO)C(N)=O)C(C)C [SEQ ID NO:18] (H-TAHAGFFLRENEAVS-NH2)
8 | 53 | CC(C)C[C@H](NC(=O)[C@H](Cc1ccccc1)NC(=O)[C@H](Cc1ccccc1)NC(=O)CNC(=O)[C@H](C)N)C(=O)N[C@@H](CCCNC(=N)N)C(=O)N[C@@H](CCC(=O)O)C(=O)N[C@@H](CC(N)=O)C(=O)N[C@@H](CCC(=O)O)C(=O)N[C@@H](C)C(=O)N[C@H](C(=O)N[C@@H](CO)C(=O)N[C@@H](C)C(=O)N[C@@H](CO)C(=O)N[C@@H](CC(N)=O)C(N)=O)C(C)C [SEQ ID NO:19] (H-AGFFLRENEAVSASN-NH2)
9 | 26 | CC(C)C[C@H](NC(=O)[C@H](CCCCN)NC(=O)[C@@H](NC(=O)[C@H](CS)NC(=O)[C@H](CCC(=O)O)NC(=O)[C@H](CC(C)C)NC(=O)[C@H](CO)NC(=O)[C@H](CCCCN)NC(=O)[C@H](CCCCN)NC(=O)[C@H](CS)NC(=O)[C@H](CC(N)=O)NC(=O)[C@H](CO)NC(=O)[C@H](CS)NC(=O)[C@H](CO)NC(=O)[C@@H](NC(=O)[C@H](CS)NC(=O)[C@H](CCC(=O)O)NC(=O)[C@H](CC(N)=O)NC(=O)[C@H](CCC(=O)O)NC(=O)[C@@H](N)CCCNC(=N)N)C(C)C)[C@@H](C)O)C(=O)O [SEQ ID NO:20, Arginyl-glutamyl-asparaginyl-glutamyl-cysteinyl-valyl-seryl-cysteinyl-seryl-asparaginyl-cysteinyl-lysyl-lysyl-seryl-leucyl-glutamyl-cysteinyl-threonyl-lysyl-leucine] (H-RENECVSCSNCKKSLECTKL-OH)
10 | 50 | CC[C@H](C)[C@H](NC(=O)[C@H](CCC(N)=O)NC(=O)[C@@H]1CCCN1C(=O)[C@H](CC(C)C)NC(=O)[C@H](C)NC(=O)[C@H](CC(C)C)NC(=O)[C@H](CCCCN)NC(=O)[C@@H](NC(=O)[C@H](C)NC(=O)[C@H](CCC(=O)O)NC(=O)[C@H](CC(C)C)NC(=O)[C@@H](N)CO)[C@@H](C)O)C(=O)N[C@@H](CCC(=O)O)C(=O)N[C@@H](CC(N)=O)C(=O)N[C@H](C(N)=O)C(C)C [SEQ ID NO:21, Seryl-leucyl-glutamyl-alanyl-threonyl-lysyl-leucyl-alanyl-leucyl-prolyl-glutaminyl-isoleucyl-glutamyl-asparaginyl-valine Amide] (H-SLEATKLALPQIENV-NH2)
11 | 34 | CC[C@H](C)[C@H](NC(=O)[C@H](CCC(N)=O)NC(=O)[C@@H]1CCCN1C(=O)[C@H](CC(C)C)NC(=O)[C@H](C)NC(=O)[C@@H](N)CC(C)C)C(=O)N[C@@H](CCC(=O)O)C(=O)N[C@@H](CC(N)=O)C(=O)N[C@H](C(=O)N[C@@H](CCCCN)C(=O)NCC(=O)N[C@H](C(=O)N[C@@H](CCC(=O)O)C(=O)N[C@@H](CC(=O)O)C(=O)N[C@@H](CO)C(N)=O)[C@@H](C)O)C(C)C [SEQ ID NO:22, Leucyl-alanyl-leucyl-prolyl-glutaminyl-isoleucyl-glutamyl-asparaginyl-valyl-lysyl-glycyl-threonyl-glutamyl-aspartyl-serine Amide] (H-LALPQIENVKGTEDS-NH2)
